Reference: patent publication US20260256751A1, “COMBINATION OF BETA-2-ADRENERGIC RECEPTOR AGONISTS AND GLP-1 RECEPTOR AGONISTS FOR USE IN TREATING HYPERGLYCAEMIA” (ATROGI AB, priority 2023, published 2026)

What was measured:
[1] = system: differentiated L6-myotubes; experiment: Glucose uptake screen (Biological example 1 of WO 2019/053427); format: cell-based; settings: compound at 10 μM, activity relative to isoproterenol at 10 μM, read-out: Biological example 1 of WO 2019/053427 (GU)
Summary of the method: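 Rat L6 myoblasts were differentiated into myotubes over 7 days in 2% FBS, then serum-starved overnight. Cells were stimulated with 1×10^−5 M compound plus β2 antagonist ICI-118551 for 1 h 40 min and re-dosed for 20 min in glucose-free medium. Uptake of 50 nM ^3H-2-deoxyglucose over 10 min was counted after NaOH lysis.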

[2] = system: differentiated L6-myotubes; experiment: cAMP production relative to isoprenaline (Biological example 2 of WO 2019/053427); format: cell-based; settings: 0.25 h, compound at 10 μM, activity relative to isoproterenol at 10 μM
Summary of the method: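 Differentiated L6 myotubes stimulated 15 min with test compound or isoprenaline, each at final 1×10^−5 M, in HBSS with 1% BSA, 5 mM HEPES, 1 mM IBMX, pH 7.4. cAMP production by the compound expressed relative to that induced by the same concentration of isoprenaline.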

## CC(=O)N[C@H]1CC[C@@H](CC(C)(C)NC[C@H](O)c2cccc(F)c2)CC1 [Compound 452, N-[(1S,4s)-4-{2-[(R)-2-(m-fluorophenyl)-2-hydroxyethylamino]-2-methylpropyl}cyclohexyl]acetamide]
[1]
  Emax at 10 µM: > 75%
[2]
  Emax at 10 µM: < 25%

## CC(C)(C[C@H]1CC[C@@H](NS(C)(=O)=O)CC1)NC[C@H](O)c1cccc(F)c1 [Compound 453, (R)-2-{1,1-dimethyl-2-[(1s,4S)-4-(mesylamino)cyclohexyl]ethylamino}-1-(m-fluorophenyl)-1-ethanol]
[1]
  Emax at 10 µM: > 75%
[2]
  Emax at 10 µM: < 25%

## CC(C)(C[C@H]1CC[C@@H](NC(=O)C(F)(F)F)CC1)NC[C@H](O)c1cccc(F)c1 [Compound 454, N-[(1S,4s)-4-{2-[(R)-2-(m-fluorophenyl)-2-hydroxyethylamino]-2-methylpropyl}cyclohexyl]trifluoroacetamide]
[1]
  Emax at 10 µM: > 75%
[2]
  Emax at 10 µM: < 25%

## CC(C)(C[C@H]1CC[C@@H](NC(=O)C(C)(C)C)CC1)NC[C@H](O)c1cccc(F)c1 [Compound 455, N-[(1S,4s)-4-{2-[(R)-2-(m-fluorophenyl)-2-hydroxyethylamino]-2-methylpropyl}cyclohexyl]2,2-dimethylpropionamide]
[1]
  Emax at 10 µM: 50 to 75%
[2]
  Emax at 10 µM: < 25%

## CC(C)(C[C@H]1CC[C@@H](N)CC1)NC[C@H](O)c1cccc(F)c1 [Compound 456, (R)-2-{1,1-dimethyl-2-[(1s,4S)-4-aminocyclohexyl]ethylamino}-1-(m-fluorophenyl)-1-ethanol]
[1]
  Emax at 10 µM: > 75%
[2]
  Emax at 10 µM: < 25%

## CN(C)C(=O)N[C@H]1CC[C@@H](CC(C)(C)NC[C@H](O)c2cccc(F)c2)CC1 [Compound 457, (R)-2-{1,1-dimethyl-2-[(1s,4S)-4-(3,3-dimethylureido)cyclohexyl]ethylamino}-1-(m-fluorophenyl)-1-ethanol]
[1]
  Emax at 10 µM: > 75%
[2]
  Emax at 10 µM: 25 to 50%

## CC(C)(C[C@H]1CC[C@H](NS(=O)(=O)C(F)(F)F)CC1)NC[C@H](O)c1cccc(F)c1 [Compound 458, (R)-2-{1,1-dimethyl-2-[(1r,4R)-4-(trifluoromesylamino)cyclohexyl]ethylamino}-1-(m-fluorophenyl)-1-ethanol]
[1]
  Emax at 10 µM: > 75%
[2]
  Emax at 10 µM: < 25%

## CC(C)(C[C@H]1CC[C@H](NC(=O)OC(C)(C)C)CC1)NC[C@H](O)c1cccc(C(F)(F)F)n1 [Compound 459, (1S,4r)-4-(2-{(S)-2-hydroxy-2-[6-(trifluoromethyl)-2-pyridyl]ethylamino}-2-methylpropyl)cyclohexyl 2-methyl-2-propanecabamate]
[1]
  Emax at 10 µM: > 75%
[2]
  Emax at 10 µM: < 25%

## CC(=O)N[C@H]1CC[C@H](CC(C)(C)NC[C@H](O)c2cccc(C(F)(F)F)n2)CC1 [Compound 460, N-[(1S,4r)-4-(2-{(S)-2-hydroxy-2-[6-(trifluoromethyl)-2-pyridyl]ethylamino}-2-methylpropyl)cyclohexyl]acetamide]
[1]
  Emax at 10 µM: 50 to 75%
[2]
  Emax at 10 µM: < 25%

## CC(C)(C[C@H]1CC[C@H](NS(C)(=O)=O)CC1)NC[C@H](O)c1cccc(C(F)(F)F)n1 [Compound 461, (S)-2-{1,1-dimethyl-2-[(1r,4S)-4-(mesylamino)cyclohexyl]ethylamino}-1-[6-(trifluoromethyl)-2-pyridyl]-1-ethanol]
[1]
  Emax at 10 µM: 25 to 50%
[2]
  Emax at 10 µM: < 25%

## CC(=O)N[C@H]1CC[C@@H](CC(C)(C)NC[C@H](O)c2cccc(C(F)(F)F)n2)CC1 [Compound 462, N-[(1R,4s)-4-(2-{(S)-2-hydroxy-2-[6-(trifluoromethyl)-2-pyridyl]ethylamino}-2-methylpropyl)cyclohexyl]acetamide]
[1]
  Emax at 10 µM: 25 to 50%
[2]
  Emax at 10 µM: < 25%

## CC(C)(C[C@H]1CC[C@@H](NS(C)(=O)=O)CC1)NC[C@H](O)c1cccc(C(F)(F)F)n1 [Compound 463, (S)-2-{1,1-dimethyl-2-[(1s,4R)-4-(mesylamino)cyclohexyl]ethylamino}-1-[6-(trifluoromethyl)-2-pyridyl]-1-ethanol]
[1]
  Emax at 10 µM: 50 to 75%
[2]
  Emax at 10 µM: < 25%

## CN(C)S(=O)(=O)[C@H]1CC[C@H](CC(C)(C)NC[C@H](O)c2cccc(F)c2)CC1 [Compound 464, (R)-2-{1,1-dimethyl-2-[(1r,4R)-4-(dimethylaminosulfonyl)cyclohexyl]ethylamino}-1-(m-fluorophenyl)-1-ethanol]
[1]
  Emax at 10 µM: 25 to 50%
[2]
  Emax at 10 µM: 25 to 50%

## CN(C)S(=O)(=O)[C@H]1CC[C@H](CC(C)(C)NC[C@H](O)c2cncc(F)c2)CC1 [Compound 465, (R)-2-{1,1-dimethyl-2-[(1r,4R)-4-(dimethylaminosulfonyl)cyclohexyl]ethylamino}-1-(5-fluoro-3-pyridyl)-1-ethanol]
[1]
  Emax at 10 µM: 50 to 75%
[2]
  Emax at 10 µM: 25 to 50%

## CC(C)(C[C@H]1CC[C@@H](N)CC1)NC[C@H](O)c1cncc(F)c1 [Compound 466, (R)-2-{1,1-dimethyl-2-[(1s,4S)-4-aminocyclohexyl]ethylamino}-1-(5-fluoro-3-pyridyl)-1-ethanol]
[1]
  Emax at 10 µM: 50 to 75%
[2]
  Emax at 10 µM: < 25%

## CC(=O)N[C@H]1CC[C@@H](CC(C)(C)NC[C@H](O)c2cncc(F)c2)CC1 [Compound 467, N-[(1S,4s)-4-{2-[(R)-2-(5-fluoro-3-pyridyl)-2-hydroxyethylamino]-2-methylpropyl}cyclohexyl]acetamide]
[1]
  Emax at 10 µM: > 75%
[2]
  Emax at 10 µM: < 25%

## CC(C)(C[C@H]1CC[C@@H](NS(C)(=O)=O)CC1)NC[C@H](O)c1cncc(F)c1 [Compound 468, (R)-2-{1,1-dimethyl-2-[(1s,4S)-4-(mesylamino)cyclohexyl]ethylamino}-1-(5-fluoro-3-pyridyl)-1-ethanol]
[1]
  Emax at 10 µM: > 75%
[2]
  Emax at 10 µM: < 25%

## CC(C)(C[C@H]1CC[C@@H](NC(=O)OC(C)(C)C)CC1)NC[C@H](O)c1cncc(F)c1 [Compound 469]
[1]
  Emax at 10 µM: > 75%
[2]
  Emax at 10 µM: < 25%

## CN(C)S(=O)(=O)[C@H]1CC[C@@H](CC(C)(C)NC[C@H](O)c2cccc(F)c2)CC1 [Compound 470, (R)-2-{1,1-dimethyl-2-[(1s,4S)-4-(dimethylaminosulfonyl)cyclohexyl]ethylamino}-1-(m-fluorophenyl)-1-ethanol]
[1]
  Emax at 10 µM: > 75%
[2]
  Emax at 10 µM: 25 to 50%

## CN(C)S(=O)(=O)[C@H]1CC[C@@H](CC(C)(C)NC[C@H](O)c2cncc(F)c2)CC1 [Compound 471, (R)-2-{1,1-dimethyl-2-[(1s,4S)-4-(dimethylaminosulfonyl)cyclohexyl]ethylamino}-1-(5-fluoro-3-pyridyl)-1-ethanol]
[1]
  Emax at 10 µM: > 75%
[2]
  Emax at 10 µM: 50 to 75%

## CS(=O)(=O)N(Cc1ccccc1)c1ccc(CC23CCC([C@@H](O)c4cccc(F)c4)(CC2)N3)cc1 [Compound 472, (S)-[4-({p-[(benzyl)-N-mesylamino]phenyl}methyl)-7-azabicyclo[2.2.1]hept-1-yl](m-fluorophenyl)methanol]
[1]
  Emax at 10 µM: 25 to 50%
[2]
  Emax at 10 µM: < 25%

## CS(=O)(=O)N(Cc1ccccc1)c1ccc(CC23CCC([C@H](O)c4cccc(F)c4)(CC2)N3)cc1 [Compound 473, (R)-[4-({p-[(benzyl)-N-mesylamino]phenyl}methyl)-7-azabicyclo[2.2.1]hept-1-yl](m-fluorophenyl)methanol]
[1]
  Emax at 10 µM: 25 to 50%
[2]
  Emax at 10 µM: < 25%

## CS(=O)(=O)Nc1ccc(CC23CCC([C@@H](O)c4cccc(F)c4)(CC2)N3)cc1 [Compound 474, (S)-(m-fluorophenyl)(4-{[p-(mesylamino)phenyl]methyl}-7-azabicyclo[2.2.1]hept-1-yl)methanol]
[1]
  Emax at 10 µM: 50 to 75%
[2]
  Emax at 10 µM: < 25%

## CS(=O)(=O)Nc1ccc(CC23CCC([C@H](O)c4cccc(F)c4)(CC2)N3)cc1 [Compound 475, (R)-(m-fluorophenyl)(4-{[p-(mesylamino)phenyl]methyl}-7-azabicyclo[2.2.1]hept-1-yl)methanol]
[1]
  Emax at 10 µM: 50 to 75%
[2]
  Emax at 10 µM: < 25%

## CNS(=O)(=O)[C@H]1CC[C@H](CC(C)(C)NC[C@H](O)c2cccc(F)c2)CC1 [Compound 476, (R)-2-{1,1-dimethyl-2-[(1r,4R)-4-(methylaminosulfonyl)cyclohexyl]ethylamino}-1-(m-fluorophenyl)-1-ethanol]
[1]
  Emax at 10 µM: > 75%
[2]
  Emax at 10 µM: 25 to 50%

## CNS(=O)(=O)[C@H]1CC[C@@H](CC(C)(C)NC[C@H](O)c2cccc(F)c2)CC1 [Compound 477, (R)-2-{1,1-dimethyl-2-[(1s,4S)-4-(methylaminosulfonyl)cyclohexyl]ethylamino}-1-(m-fluorophenyl)-1-ethanol]
[1]
  Emax at 10 µM: 50 to 75%
[2]
  Emax at 10 µM: < 25%

## CNS(=O)(=O)[C@H]1CC[C@H](CC(C)(C)NC[C@H](O)c2cncc(F)c2)CC1 [Compound 478, (R)-2-{1,1-dimethyl-2-[(1r,4R)-4-(methylaminosulfonyl)cyclohexyl]ethylamino}-1-(5-fluoro-3-pyridyl)-1-ethanol]
[1]
  Emax at 10 µM: 25 to 50%
[2]
  Emax at 10 µM: < 25%

## CC(=O)N(Cc1ccccc1)[C@H]1CC[C@@H](C[C@@H]2CC[C@H]([C@H](O)c3cccc(F)c3)N2)CC1 [Compound 479, N-[(1R,4s)-4-({(2S,5R)-5-[(S)-(m-fluorophenyl)hydroxymethyl]-2-pyrrolidinyl}methyl)cyclohexyl]-N-benzylacetamide]
[1]
  Emax at 10 µM: < 25%
[2]
  Emax at 10 µM: < 25%

## CC(=O)N(Cc1ccccc1)[C@H]1CC[C@H](C[C@@H]2CC[C@H]([C@@H](O)c3cccc(F)c3)N2)CC1 [Compound 481, N-[(1S,4r)-4-({(2S,5R)-5-[(S)-(m-fluorophenyl)hydroxymethyl]-2-pyrrolidinyl}methyl)cyclohexyl]-N-benzylacetamide]
[1]
  Emax at 10 µM: < 25%
[2]
  Emax at 10 µM: < 25%
